Data: BindingDB's records for doi:10.1021/jm00116a003 (Virginia Commonwealth University, 1992)

Assay: The compound was tested for its binding affinity towards sigma receptor in guinea pig brain membranes.

O=C(c1ccccc1)N1CCNCC1 and COc1ccccc1C1(O)CCNCC1 are within 1.5-fold of each other in Ki: 11400 nM for the first, 14300 nM for the second.

Going from FC(F)(F)c1cccc(N2CCN(CCCCc3ccccc3)CC2)c1 to c1ccc(CCCCN2CCN(c3ccccc3)CC2)cc1, the Ki falls from 5.4 nM to 2.6 nM (2.1-fold). The second binds more tightly here.

Going from Clc1cccc(N2CCN(CCc3ccccc3)CC2)c1 to Clc1ccc(N2CCN(CCCc3ccccc3)CC2)cc1, the Ki falls from 11 nM to 2.9 nM (3.8-fold).

For c1ccc(CCCN2CCN(c3ccc4ccccc4c3)CC2)cc1, the Ki was 2.8 nM.

Assay: as above
Remark: another data set of the same source

For Clc1ccc(C2=CCN(CCCCc3ccccc3)CC2)cc1, the Ki was 4.1 nM.
